Measured values taken from US20100016232A1, “Treatment Of Inflammatory Diseases With Mammal Beta Defensins” (Novozymes A/S, priority 2008, published 2010).
Marks after values point to notes of the source that are not given here.

Legend:
[1] = system: TNF production from mouse peripheral blood mononuclear cells (PBMC); assay: TNF production from mouse PBMC, Cytometric Bead Array; type: cell-based
Protocol: Mouse peripheral blood mononuclear cells were isolated from blood of ten NMRI mice. In short, heparinized blood was diluted 1/1 v/v with RPMI and subjected to Ficoll density centrifugation within 2 h of drawing. Plasma was collected from the top and discarded. Isolated PBMC were resuspended in culture medium (RPMI 1640 (Gibco, 42401) w/1% penicillin and streptomycin and 1% L-Glutamine) and seeded in 96-well culture plates with 115.500 cells per well in a total of 200 μl. […] The supernatants were collected after incubation at 37° C. for 24 hours, and stored at −80° C. until cytokine measurement.
Cytokine production in supernatants was measured by flow cytometry with a mouse inflammation cytometric bead array (CBA) according to manufacturer's instructions (BD) on a FACSarray flow cytometer.

IL-23, human PBMC = assay: IL-23 in supernatants of human PBMC, ELISA; type: cell-based
Protocol: Peripheral blood was drawn from healthy volunteers (with approval from the relevant ethical committee in Denmark). Heparinized blood was diluted 1/1 v/v with RPMI and were subjected to Ficoll density centrifugation within 2 h of drawing. Plasma was collected from the top from individual donors and was kept on ice until it was used at 2% in the culture medium (autologous culture medium). Isolated PBMC were resuspended in autologous culture medium and seeded in 96-well culture plates with 255.000 cells per well in a total of 200 μl. […] The concentrations used for stimulation were optimized on 3 different donors in initial experiments, for LPS two different concentrations were used to be sure to be on a cytokine level that is possible to modulate. In some experiments PBMC were treated with Dexamethason and Indomethacin alone and together with LPS or LTA as a control on downregulation of inflammatory cytokines. The supernatants were collected after incubation at 37° C. for 24 hours, and stored at −80° C. until cytokine measurement. Viability was measured by Alamar Blue (Biosource, DALL 1100) in all experiments and in some cases also by MTS (Promega) according to manufacturer's instruction and was in some experiments also judged by counting of the cells by a Nucleocounter. […]
(§1) Cell culture supernatants were collected and stored at −80° C. Amounts of IL-23 was measured by standard sandwich ELISA using commercially available antibodies and standards according to the manufacturer's protocols (eBioscience).

[2] = system: IL-10 production from human peripheral blood mononuclear cells (PBMC); assay: IL-10 production from human PBMC, Cytometric Bead Array; type: cell-based; conditions: concentration of control compound not given, Table 17
Protocol: (§2) Peripheral blood was drawn from healthy volunteers (with approval from the relevant ethical committee in Denmark). Heparinized blood was diluted 1/1 v/v with RPMI and were subjected to Ficoll density centrifugation within 2 h of drawing. Plasma was collected from the top from individual donors and was kept on ice until it was used at 2% in the culture medium (autologous culture medium). Isolated PBMC were resuspended in autologous culture medium and seeded in 96-well culture plates with 255.000 cells per well in a total of 200 μl. […] The concentrations used for stimulation were optimized on 3 different donors in initial experiments, for LPS two different concentrations were used to be sure to be on a cytokine level that is possible to modulate. In some experiments PBMC were treated with Dexamethason and Indomethacin alone and together with LPS or LTA as a control on downregulation of inflammatory cytokines. The supernatants were collected after incubation at 37° C. for 24 hours, and stored at −80° C. until cytokine measurement. Viability was measured by Alamar Blue (Biosource, DALL 1100) in all experiments and in some cases also by MTS (Promega) according to manufacturer's instruction and was in some experiments also judged by counting of the cells by a Nucleocounter.
(§3) Cytokine production in supernatants was measured by flow cytometry with a human inflammation cytometric bead array (CBA) according to manufacturer's instructions (BD) on a FACSarray flow cytometer. The following cytokines were measured: IL-8, IL-1β, IL-10, TNF, IL-12 p70, IL-6. In some experiments, cytokines were measured by ELISA kits from R&D systems (IL-10, TNF-α, IL-1β) according to the manufacturer' instruction.

[3] = system: TNF production from human peripheral blood mononuclear cells (PBMC); assay: TNF production from human PBMC, Cytometric Bead Array; type: cell-based
Protocol: as §2, §3

[4] = system: IL-1β production from human peripheral blood mononuclear cells (PBMC); assay: IL-1β production from human PBMC, Cytometric Bead Array; type: cell-based; conditions: concentration of control compound not given, Table 18
Protocol: as §2, §3

[5] = system: collagen-induced arthritis (CIA) in the mouse; assay: Collagen-induced rheumatoid arthritis model, clinical arthritis score; type: in vivo; parameters: key: each paw scored 0-4 by ascending severity; total summed over paws; conditions: Group B, 1 mg/kg IP once daily
Protocol: All animals were subjected on Day 0 of the study (study commencement) to an intradermal injection into the tail of 0.1 ml Type II Collagen/CFA emulsion (200 μg collagen per mouse) under light Isoflurane anesthesia, using a plastic syringe. The location of injection was at an approximate caudal distance of about 1 cm from the base of the tail. A collagen challenge (200 μg/mouse) was presented to the animals by IP injection of collagen and PBS on Day 21.
Treatments were commenced on day 14 of the study and continued once daily throughout. All surviving mice were terminated on study day 42.
Mice were examined for signs of arthritogenic responses in peripheral joints on study day 0, 14, 21 and thereafter five times weekly until termination of the study. Arthritis reactions were reported for each paw according to a 0-4 scale in ascending order of severity as shown below:
In accordance with Home Office regulations mice with a total clinical score of equal to or greater than 12 were culled due to arthritis severity. The clinical score of these mice at termination was carried forward in the analysis for the remainder of the study in order that the data was not artificially skewed by the removal of high scoring mice.

[6] = system: IL-23, human CD14+ monocyte-derived dendritic cells; assay: IL-23 in supernatants of human CD14+ monocyte-derived dendritic cells, ELISA; type: cell-based; conditions: Dexamethasone 1 μM
Protocol: The DCs were prepared according to a modified protocol originally described by Romani et al. Briefly, peripheral blood mononuclear cells (PBMCs) were purified from buffy coats of healthy donors by centrifugation over a Ficoll-pague (GE-healthcare) gradient. Monocytes were isolated from PBMC by positive selection of CD14+ cells by magnetic beads (Dynal, Invitrogen) according to the manufacturer's instructions. The CD14+ monocytes were cultured in 6-well plates in RPMI/2% Human AB Serum recombinant human recombinant granulocyte-macrophage colony-stimulating factor (GM-CSF, 20 ng/ml) and IL-4 (20 ng/ml) (PeproTech) for 6 days, replenishing the medium/cytokines after 2 and 5 days.
as §1

[7] = LPS 20 ng/ml, treatment 1 μg/ml
[8] = LPS 0.6 ng/ml, concentration of control compound not given, Table 16
[9] = LPS 20 ng/ml, concentration of control compound not given, Table 16

Infliximab: antibody which binds to TNF-alpha (Remicade), positive control [reference compound]
TNF [1, 7]: 2119 pg/mL | TNF ([1]; Medium, treatment 1 μg/ml): 530 pg/mL | IL-23 (IL-23, human PBMC; Control (medium), treatment 1 μg/ml): 227 pg/mL | IL-23 (IL-23, human PBMC; LPS 0.6 ng/ml, treatment 1 μg/ml): 356 pg/mL | IL-23 (IL-23, human PBMC; [7]): 373 pg/mL | IL-23 (IL-23, human PBMC; LTA 5 μg/ml, treatment 1 μg/ml): 349 pg/mL | IL-10 ([2]; LPS 0.6 ng/ml): 46 pg/mL | IL-10 % of control ([2]; LPS 0.6 ng/ml): 69% | IL-10 ([2]; LPS 20 ng/ml): 63 pg/mL | IL-10 % of control ([2]; LPS 20 ng/ml): 56% | IL-10 ([2]; Medium): 0 pg/mL | TNF [3, 8]: 0 pg/mL | TNF % of control [3, 8]: 0% | TNF [3, 9]: 0 pg/mL | TNF % of control [3, 9]: 0% | TNF ([3]; LPS 20 ng/ml, treatment 1 μg/ml, Table 21): 1 pg/mL | TNF ([3]; Medium, concentration of control compound not given, Table 16): 0 pg/mL | TNF ([3]; Medium, treatment 1 μg/ml, Table 21): 0 pg/mL | IL-1β ([4]; LPS 0.6 ng/ml): 636 pg/mL | IL-1β % of control ([4]; LPS 0.6 ng/ml): 86% | IL-1β ([4]; LPS 20 ng/ml): 2704 pg/mL | IL-1β % of control ([4]; LPS 20 ng/ml): 106% | IL-1β ([4]; Medium): 0 pg/mL

C[C@@H]1C[C@H]2[C@@H]3CCC4=CC(=O)C=C[C@]4(C)[C@@]3(F)[C@@H](O)C[C@]2(C)[C@@]1(O)C(=O)CO [Dexamethasone, reference compound]
Mean Arthritic Score ([5]; Study Day 0): 0.0 | Mean Arthritic Score ([5]; Study Day 14): 0.4 | Mean Arthritic Score ([5]; Study Day 21): 0.0 | Mean Arthritic Score ([5]; Study Day 22): 0.0 | Mean Arthritic Score ([5]; Study Day 23): 0.0 | Mean Arthritic Score ([5]; Study Day 26): 0.0* | Mean Arthritic Score ([5]; Study Day 27): 0.0* | Mean Arthritic Score ([5]; Study Day 28): 0.0* | Mean Arthritic Score ([5]; Study Day 29): 0.0* | Mean Arthritic Score ([5]; Study Day 30): 0.0* | Mean Arthritic Score ([5]; Study Day 33): 0.0* | Mean Arthritic Score ([5]; Study Day 34): 0.0* | Mean Arthritic Score ([5]; Study Day 35): 0.0* | Mean Arthritic Score ([5]; Study Day 36): 0.0* | Mean Arthritic Score ([5]; Study Day 37): 0.0* | Mean Arthritic Score ([5]; Study Day 40): 0.0* | Mean Arthritic Score ([5]; Study Day 41): 0.0* | TNF ([1]; LPS 20 ng/ml, treatment 3.5 ng/ml): 328 pg/mL | IL-23 (IL-23, human PBMC; Control (medium), treatment 3.5 ng/ml): 222 pg/mL | IL-23 (IL-23, human PBMC; LTA 5 μg/ml, treatment 3.5 ng/ml): 223 pg/mL | IL-10 % of control ([2]; LPS 0.6 ng/ml): 70% | IL-10 % of control ([2]; LPS 20 ng/ml): 67% | IL-23 ([6]; LPS (100 ng/ml) and IFN-γ (20 ng/ml)): 1147 pg/mL | IL-23 ([6]; Unstimulated): 424 pg/mL | IL-1β % of control ([4]; LPS 0.6 ng/ml): 14% | IL-1β % of control ([4]; LPS 20 ng/ml): 44%
